Data reported in patent publication US4767776A, “N-1H-tetrazol-5-yl-2-naphthalene carboxamides and their use as antiallergy and antiinflammatory agents” (Warner-Lambert Company, priority 1987, dated 1988).
Read-outs that look alike come from different tables or passages of the source.

Test system: human basophils
Assay: Histamine release from human basophils (HHB)
Format: cell-based
Conditions: anti-IgE stimulus
Method: HISTAMINE RELEASE FROM HUMAN BASOPHILS
The blood samples are placed briefly on a rotary mixer. All glassware contacting the blood is siliconized. The blood is aliquoted into three plastic 50 ml centrifuge tubes and the volume is noted. Hespan (hydroxy ethyl starch), 0.5 ml per 1.0 ml of blood, is added. The tubes are inverted several times to mix and are left undisturbed at room temperature until a sharp separation is observed between the settled red cells and the leukocyte and platelet-rich plasma. This usually occurs within 35-45 minutes.
The plasma fraction is pipetted off and placed into two clean plastic 50 ml centrifuge tubes. […] The platelets remain in the plasma and are discarded. The pelleted leukocytes are shaken gently to disrupt the cell button and washed twice as described:
Wash 1. Five ml of HA buffer with 0.005M EDTA is added to the dispersed cells in each tube and gently vortexed. 25 ml of buffer is then added and gently vortexed. The samples are again centrifuged as described earlier. The supernatant is poured off, and the cell button in each tube is gently dispersed.
Wash 2. Five ml of HA buffer with EDTA is added to each tube to resuspend the cells. Leukocytes are then pooled into one tube and the volume is brought up to 40 ml with HA buffer with EDTA and gently vortexed. […] The supernatant fluid is discarded and the cell button is dispersed. Sixteen ml of HACM buffer is added to the washed cells and gently vortexed. A sample is prepared for Hematology, where a total white blood cell and platelet count is done using a Coulter Counter.
Aliquots (0.1 ml) of cells are added to assay tubes containing 0.4 ml of either 6% perchloric acid (for total histamine content), vehicle control (for spontaneous release), or drug. The tubes are incubated at room temperature for 8 minutes, and then placed in a 37° water bath for two more minutes. Buffer or challenge agents (at 37°) are added to the tube and they are incubated for an additional 45 minutes at 37°. The tubes are then spun at 2000 RPM (1200 g) for three minutes to pellet the cells and the supernatants are poured into assay cups.
If the compound is in solution, distilled water is used to bring it up to 100 ml total volume. If the drug is not in solution, 0.2 ml 1N NaOH (or HCl) is added, and then distilled water is added to yield 100 ml total solution. Five ml of the stock solution is diluted (1:2) with 5 ml of two times concentrated HACM (Hepes Albumin Calcium Magnesium) buffer to yield the stock working concentration of 150 μM. […] Further dilutions are made with HACM buffer for 33, 10, 3.3, 1.0 μM, etc.
Short ragweed and house dust extracts (Greer Laboratories, Inc.) are supplied as aqueous extracts in stock concentrations of 40,000 and 10,000 protein nitrogen units per milliliter (PNU/ml), respectively. Aqueous solutions of anti-IgE antisera (rabbit-raised antibody) are purchased from Dako via Accurate Chemicals. The tripeptide f-met-leu-phe (fmlp) from Vega Biochemicals is used. The aqueous solutions of ragweed, house dust, and anti-IgE are diluted 1:2 with two times concentrated HACM and then further diluted with HACM to yield final stock concentrations of […] for ragweed and house dust, and a 1:50 dilution for the anti-IgE antisera. […] The pH is adjusted to 7.4. Further dilutions for working solutions are made in HACM buffer. All stock and working solutions are stored at 4°. Working solutions comprise 1/6 of the final volume in the cell reaction, therefore, working solutions of challenge agents are made up six times the required final concentration (i.e., 600 μM f-met-leu-phe yields 100 μM final concentration in the cellular reaction).
Samples are run in triplicate, using either 1.5 ml polypropylene-capped reaction tubes, or 5.0 ml plastic uncapped tubes.

[1] = tested at 33 μM, read-out: % Inhibition of Histamine Release with Anti-IgE Stimulus

| Structure (SMILES) | inhibition at 33 µM [1] | inhibition at 33 µM (at highest dose tested, column head: tested at 33 μM, read-out: % Inhibition of Histamine Release with Anti-IgE Stimulus (at highest dose tested)) |
| --- | --- | --- |
| CC(C)Oc1c(C(=O)Nc2nnn[nH]2)ccc2ccccc12 [Example 23, 1-(1-Methylethoxy)-N-1H-tetrazol-5-yl-2-naphthalenecarboxamide] | 16% |  |
| COc1ccc2c(OC(C)C)c(C(=O)Nc3nnn[nH]3)ccc2c1 [Example 22, 6-Methoxy-1-(1-methylethoxy)-N-1H-tetrazol-5-yl-2-naphthalenecarboxamide] | 71% |  |
| CC(C)Oc1ccc2ccc(C(=O)Nc3nnn[nH]3)c(OC(C)C)c2c1 [Example 27, 1,7-bis(1-Methylethoxy)-N-1H-tetrazol-5-yl-2-naphthalenecarboxamide] |  | 0% |
| COc1ccc2ccc(C(=O)Nc3nnn[nH]3)c(OC(C)C)c2c1 [Example 26, 7-Methoxy-1-(1-methylethoxy)-N-1H-tetrazol-5-yl-2-naphthalenecarboxamide] | 91% |  |
| COc1cccc2c(OC(C)C)c(C(=O)Nc3nnn[nH]3)ccc12 [Example 25, 5-Methoxy-1-(1-methylethoxy)-N-1H-tetrazol-5-yl-2-naphthalenecarboxamide] | 11% |  |
| COc1ccc2ccc(C(=O)Nc3nn[nH]n3)c(OC)c2c1 [Example 24, 1,7-Dimethoxy-N-1H-tetrazol-5-yl-2-napthalenecarboxamide] | 57% |  |
